According to paper PMC8151276, “An Integrated Approach toward NanoBRET Tracers for Analysis of GPCR Ligand Engagement” (Molecules, 2021):

Columns and labels:
Type in all cases: binding
OPRK1 = molecular target: T1, OPRK1 (Homo sapiens, UniProt P41145); test: NanoBRET screen HiBiT-OPRK1 in HEK293
T1 construct: purchased Promega (in-house HiBiT-GPCR construct library, NanoBRET)
Description: (§1) Each tracer candidate was screened across the entire library of HiBiT-GPCR constructs using NanoBRET as the detection modality. As depicted in Figure 4A, the specificity of interactions was evaluated through decrease in BRET due to competitive displacement of a bound tracer by excess parental compound. Each tracer was analyzed for binding to each HiBiT-GPCR fusion in the absence and in the presence of competing parental compound. Briefly, HEK293 cells were transfected with HiBiT-GPCR constructs diluted into promoterless DNA to reduce expression and maximize translocation to the cell surface. Each tracer candidate was then screened at concentrations of 1 μM and 0.1 μM across cells expressing these fusions. Cells were treated for 1.5 h with tracer either alone or in the presence of 20 μM competing parental compound (i.e., control). BRET was measured upon addition of purified LgBiT and subsequent complementation with HiBiT genetically fused to a GPCR. The specificity of interactions was assessed through a decrease in BRET signal due to competitive displacement of the bound tracer. To further gauge the robustness of these interactions, the fold response over the control (i.e., BRETtracer/BRETcontrol) was calculated. We chose a 1.5-fold response, which translates to ≥7-fold signal over noise as the minimal threshold required to score an interaction as positive. […]. Below we highlight the screening results obtained for our exemplary fluorescent tracers based on Clozapine, Amitriptyline and AZD1283.
(§2) HiBiT-GPCR DNA constructs were diluted in 10 mM Tris pH 8 to a final concentration of 0.01 μg/μL, arrayed in 96-well plates and stored at −20 °C. For transfection, HEK293 cells were suspended in Opti-MEM (without phenol red) supplemented with 2% fetal bovine serum (Seradigm) and 100 units/mL penicillin–streptomycin (Gibco) at a final concentration of 220,000 cells/mL and dispensed into white 96-well plates at 90 μL/well. Subsequent transfections and screens were carried using an Agilent Bravo Automated Liquid Handling Platform. First, the 96-well HiBiT DNA arrays were diluted 25-fold in Opti-MEM (without serum or phenol red) to a final concentration of 0.0004 μg/μL and 20 μL of the diluted DNAs were transferred into new 96-well plates. Next, promoterless carrier DNA (1 μg/μL) was diluted 25-fold (0.04 μg/μL) and then dispensed into the diluted arrays at 20 μL/well. Following brief mixing, Viafect transfection reagent (Promega) diluted 16-fold into Opti-MEM was dispensed into the plates at 40 μL/well. After mixing by pipetting, plates were incubated for 10 min on the pipetting station deck. The DNA-transfection reagent complexes were then added to plates containing cells. To facilitate the screen, 10 μL of DNA-transfection reagent complexes were added in duplicates to the top 4 and bottom 4 rows, resulting in two identical 48-well arrays per plate. Plates with transfected cells were incubated for 18–20 h at 37 °C/5% CO2. A screen of each tracer across the entire library using two different concentrations requires duplicate plates of transfected cells. Depending on the number of tracers being screened, transfections can be scaled up using the same ratios. The next day, for each tracer, four 20× screening solutions in tracer dilution buffer (Promega) were prepared: two duplicates at final concentration of 20 μM and two duplicates at a final concentration of 2 μM. A competing unmodified compound was added to one of each duplicate at a final concentration of 400 μM. The four resulting solutions were diluted 4-fold in Opti-MEM without serum or phenol red to generate 5× solutions (5 µM and 0.5 µM tracer +/− 100 μM competing compound). To screen the library, a BioTek MultiFlo FX liquid dispenser was used to dispense 22.5 µL of tracer solution to the top 4 rows and 22.5 µL tracer + competing compound solution to the 4 bottom rows. Plates were briefly mixed on an orbital shaker and incubated for 1.5 h at room temperature. […]

NMUR2 = molecular target: T2, NMUR2 (Homo sapiens, UniProt Q9GZQ4); test: NanoBRET screen HiBiT-NMUR2 in HEK293
T2 construct: purchased Promega (in-house HiBiT-GPCR construct library, NanoBRET)
T2 sequence (Q9GZQ4 whole entry): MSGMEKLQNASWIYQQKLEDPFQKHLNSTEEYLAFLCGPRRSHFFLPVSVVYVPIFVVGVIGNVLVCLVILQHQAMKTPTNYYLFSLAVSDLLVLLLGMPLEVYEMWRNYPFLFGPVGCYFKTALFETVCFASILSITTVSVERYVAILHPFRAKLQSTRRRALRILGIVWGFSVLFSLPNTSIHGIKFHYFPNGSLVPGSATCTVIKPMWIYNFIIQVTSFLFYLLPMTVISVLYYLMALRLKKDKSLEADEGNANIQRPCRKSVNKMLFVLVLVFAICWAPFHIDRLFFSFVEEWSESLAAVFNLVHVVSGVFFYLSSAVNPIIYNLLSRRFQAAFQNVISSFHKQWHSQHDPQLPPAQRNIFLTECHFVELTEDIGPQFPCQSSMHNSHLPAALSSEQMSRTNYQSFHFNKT
Description: as §1, §2

EDNRA = molecular target: T3, EDNRA (Homo sapiens, UniProt P25101); test: NanoBRET screen HiBiT-EDNRA in HEK293
T3 construct: purchased Promega (in-house HiBiT-GPCR construct library, NanoBRET)
T3 sequence (P25101 21-427): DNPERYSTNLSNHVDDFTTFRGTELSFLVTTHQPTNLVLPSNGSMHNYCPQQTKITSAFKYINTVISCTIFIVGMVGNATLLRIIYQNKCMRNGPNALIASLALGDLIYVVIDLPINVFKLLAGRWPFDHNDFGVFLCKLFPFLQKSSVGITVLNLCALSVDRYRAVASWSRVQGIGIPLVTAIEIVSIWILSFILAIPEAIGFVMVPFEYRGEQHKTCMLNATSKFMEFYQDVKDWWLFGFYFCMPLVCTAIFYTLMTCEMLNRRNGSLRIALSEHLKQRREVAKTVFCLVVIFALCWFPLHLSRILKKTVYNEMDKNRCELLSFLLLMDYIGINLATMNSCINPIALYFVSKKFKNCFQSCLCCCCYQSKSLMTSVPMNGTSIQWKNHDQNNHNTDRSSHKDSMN
Description: as §1, §2

[1] = tracer at 0.1μM, listed as amitriptyline-b-2-NB590
[2] = tracer at 1μM, listed as amitriptyline-b-2-NB590

T1 sequence (P41145 whole entry): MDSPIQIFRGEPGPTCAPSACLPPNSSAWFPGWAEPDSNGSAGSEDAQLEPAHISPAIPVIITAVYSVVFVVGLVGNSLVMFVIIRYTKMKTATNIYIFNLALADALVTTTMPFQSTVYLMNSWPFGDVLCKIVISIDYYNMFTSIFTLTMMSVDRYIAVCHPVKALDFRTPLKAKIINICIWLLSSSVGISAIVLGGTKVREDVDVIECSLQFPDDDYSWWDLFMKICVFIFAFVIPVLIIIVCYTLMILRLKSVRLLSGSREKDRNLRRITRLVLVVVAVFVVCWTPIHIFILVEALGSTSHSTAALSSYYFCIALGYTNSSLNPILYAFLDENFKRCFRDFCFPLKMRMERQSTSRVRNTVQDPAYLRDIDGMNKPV

Row | Structure (SMILES) | NanoBRET Fold Response (OPRK1; OPRK1, tracer 0.1μM) | NanoBRET Fold Response (OPRK1; OPRK1, tracer 1μM) | NanoBRET Fold Response (NMUR2; NMUR2, tracer 0.1μM) | NanoBRET Fold Response (NMUR2; NMUR2, tracer 1μM) | NanoBRET Fold Response (EDNRA; EDNRA, tracer 0.1μM) | NanoBRET Fold Response (EDNRA; EDNRA, tracer 1μM) | further results
1 | Cc1nc2n(c(=O)c1CCN1CCC(c3noc4cc(F)ccc34)CC1)CCCC2OC(=O)NCCOCCOCCOCCOCCNC(=O)CCc1ccc2n1[B-](F)(F)[N+]1=C(c3ccc[nH]3)C=CC1=C2 (stereo not shown) [Risperidone-2-NB590] | 0.96 | 0.99 | 1.09 | 1.05 | 1.04 | 0.97 | 
2 | CCOC(=O)c1cc(C#N)c(N2CCC(C(=O)NS(=O)(=O)Cc3ccccc3/C=C/C(=O)NCCNC(=O)CCc3ccc4n3[B-](F)(F)[N+]3=C(c5ccc[nH]5)C=CC3=C4)CC2)nc1C [AZD1283-1-NB590] |  |  |  |  |  |  | NanoBRET Fold Response (OPRK1; OPRK1, 0.1μM): 0.98; NanoBRET Fold Response (OPRK1; OPRK1, 1μM): 0.99; NanoBRET Fold Response (NMUR2; NMUR2, 0.1μM): 1.01; NanoBRET Fold Response (NMUR2; NMUR2, 1μM): 0.86; NanoBRET Fold Response (EDNRA; EDNRA, 0.1μM): 1.01; NanoBRET Fold Response (EDNRA; EDNRA, 1μM): 1.02
3 | Cc1cc2c(s1)Nc1ccccc1N=C2N1CCN(CCCNC(=O)CCOCCOCCOCCOCCNC(=O)CCc2ccc3n2[B-](F)(F)[N+]2=C(c4ccc[nH]4)C=CC2=C3)CC1 [Olanzapine-a-2-NB590] | 0.92 | 1.16 | 0.94 | 0.98 | 1.02 | 1.10 | 
4 | COc1ccccc1N1CCN(CCCCN2C(=O)c3ccc(CNC(=O)CCOCCNC(=O)c4ccc(CNC(=O)CCc5ccc6n5[B-](F)(F)[N+]5=C(c7ccc[nH]7)C=CC5=C6)cc4)cc3C2=O)CC1 [NAN-190-3-NB590] | 0.89 | 1.16 | 1.04 | 0.75 | 1.01 | 1.21 | 
5 | CC(C)N(CC[C@H](c1ccccc1)c1cc(CCNC(=O)CCOCCOCCOCCOCCNC(=O)CCc2ccc3n2[B-](F)(F)[N+]2=C(c4ccc[nH]4)C=CC2=C3)ccc1O)C(C)C [Tolterodine-2-NB590] | 1.12 | 0.95 | 1.31 | 1.07 | 0.94 | 1.01 | 
6 | CN(C)CCC=C1c2ccccc2CCc2ccc(C(=O)NCCNC(=O)CCOCCOCCOCCOCCNC(=O)CCc3ccc4n3[B-](F)(F)[N+]3=C(c5ccc[nH]5)C=CC3=C4)cc21 [Amitriptyline-b-2-NB590] |  |  |  |  |  |  | NanoBRET Fold Response (OPRK1; [1]): 1.23; NanoBRET Fold Response (OPRK1; [2]): 1.23; NanoBRET Fold Response (NMUR2; [1]): 0.99; NanoBRET Fold Response (NMUR2; [2]): 1.00; NanoBRET Fold Response (EDNRA; [1]): 1.09; NanoBRET Fold Response (EDNRA; [2]): 0.94
7 | O=C(CCOCCOCCOCCOCCNC(=O)CCc1ccc2n1[B-](F)(F)[N+]1=C(c3ccc[nH]3)C=CC1=C2)NCCCN1CCN(C2=Nc3ccccc3Oc3ccc(Cl)cc32)CC1 [Loxapine-a-2-NB590] | 1.03 | 0.95 | 1.07 | 0.74 | 1.05 | 0.85 | 
8 | CN(C)CCC=C1c2ccccc2CCc2ccc(C(=O)NCCNC(=O)CCOCCOCCOCCOCCNC(=O)CCc3ccc4n3[B-](F)(F)[N+]3=C(c5ccc[nH]5)C=CC3=C4)cc21 [Amitriptyline-a-2-NB590] |  |  |  |  |  |  | NanoBRET Fold Response (OPRK1; tracer at 0.1μM): 1.04; NanoBRET Fold Response (OPRK1; tracer at 1μM): 1.02; NanoBRET Fold Response (NMUR2; tracer at 0.1μM): 1.00; NanoBRET Fold Response (NMUR2; tracer at 1μM): 1.02; NanoBRET Fold Response (EDNRA; tracer at 0.1μM): 0.99; NanoBRET Fold Response (EDNRA; tracer at 1μM): 0.99
9 | O=C(CCc1ccc2n1[B-](F)(F)[N+]1=C(c3ccc[nH]3)C=CC1=C2)NCCOCCOCCNC(=O)OCCOCCN1CCN(C2=Nc3ccccc3Sc3ccccc32)CC1 [Quetiapine-a-2-NB590] | 0.94 | 0.97 | 1.02 | 0.82 | 1.03 | 1.04 | 
10 | COc1ccccc1N1CCN(CCCCN2C(=O)c3ccc(CNC(=O)CCOCCOCCOCCOCCNC(=O)CCc4ccc5n4[B-](F)(F)[N+]4=C(c6ccc[nH]6)C=CC4=C5)cc3C2=O)CC1 [NAN-190-2-NB590] | 1.02 |  |  |  | 1.02 | 1.05 | 
11 | CN1CCN(C2=Nc3cc(Cl)ccc3N(CC(=O)NCCOCCOCCOCCOCCNC(=O)CCc3ccc4n3[B-](F)(F)[N+]3=C(c5ccc[nH]5)C=CC3=C4)c3ccccc32)CC1 [Clozapine-c-2-NB590] |  |  |  |  |  |  | NanoBRET Fold Response (OPRK1; OPRK1, 0.1μM tracer): 1.01; NanoBRET Fold Response (OPRK1; OPRK1, 1μM tracer): 0.90; NanoBRET Fold Response (NMUR2; NMUR2, 0.1μM tracer): 1.12; NanoBRET Fold Response (NMUR2; NMUR2, 1μM tracer): 0.92; NanoBRET Fold Response (EDNRA; EDNRA, 0.1μM tracer): 0.99; NanoBRET Fold Response (EDNRA; EDNRA, 1μM tracer): 0.87
12 | N#CN/C(=N\CCNC(=O)c1ccc(N)cc1)NCCCOc1cccc(CN2CCCCC2)c1 [Aminopotentidine (unmodified)] |  |  |  |  |  |  | NanoBRET Fold Response (OPRK1; OPRK1, other tracers/Aminopotentidine (unmodified), 0.1μM): 1.75; NanoBRET Fold Response (OPRK1; OPRK1, other tracers/Aminopotentidine (unmodified), 1μM): 1.55
13 | COc1ccc2[nH]c(-c3ccc(CNC(=O)CCOCCOCCOCCOCCNC(=O)CCc4ccc5n4[B-](F)(F)[N+]4=C(c6ccc[nH]6)C=CC4=C5)cc3)c(CCNC(C)=O)c2n1 [AzomelatoninICO9-2-NB590] |  |  |  |  |  |  | NanoBRET Fold Response (OPRK1; 0.1μM tracer): 0.96; NanoBRET Fold Response (OPRK1; 1μM tracer): 0.93; NanoBRET Fold Response (NMUR2; 0.1μM tracer): 0.71; NanoBRET Fold Response (NMUR2; 1μM tracer): 0.99; NanoBRET Fold Response (EDNRA; 0.1μM tracer): 0.87; NanoBRET Fold Response (EDNRA; 1μM tracer): 0.99
14 | O=C(CCOCCOCCOCCOCCNC(=O)CCc1ccc2n1[B-](F)(F)[N+]1=C(c3ccc[nH]3)C=CC1=C2)NCCCN1CCN(C2=Nc3cc(Cl)ccc3Nc3ccccc32)CC1 [Clozapine-a-2-NB590] |  |  |  |  |  |  | NanoBRET Fold Response (OPRK1; OPRK1, 0.1μM tracer): 1.01; NanoBRET Fold Response (OPRK1; OPRK1, 1μM tracer): 0.97; NanoBRET Fold Response (NMUR2; NMUR2, 0.1μM tracer): 0.93; NanoBRET Fold Response (NMUR2; NMUR2, 1μM tracer): 1.01; NanoBRET Fold Response (EDNRA; EDNRA, 0.1μM tracer): 1.04; NanoBRET Fold Response (EDNRA; EDNRA, 1μM tracer): 0.90
15 | CCCn1c(=O)c2[nH]c(-c3ccc(OCC(=O)NCCNC(=O)CCOCCNC(=O)c4ccc(CNC(=O)CCc5ccc6n5[B-](F)(F)[N+]5=C(c7ccc[nH]7)C=CC5=C6)cc4)cc3)nc2n(CCC)c1=O [XAC-3-NB590] | 0.97 | 1.34 | 1.11 | 0.89 | 1.12 | 1.15 | 
16 | CN(CCC=C1c2ccccc2CCc2ccccc21)C(=O)CCOCCOCCOCCOCCNC(=O)CCc1ccc2n1[B-](F)(F)[N+]1=C(c3ccc[nH]3)C=CC1=C2 [Amitriptyline-e-2-NB590] |  |  |  |  |  |  | NanoBRET Fold Response (OPRK1; tracer at 1μM): 1.05; NanoBRET Fold Response (EDNRA; tracer at 1μM): 1.05
